Assay [1] concerns HCT116 FOPFlash. The assay can be described thus: Control reporter assay, HCT116 FOP control vector (non-functional TCF elements), luciferase expression. The following applies: HCT116 FOP control reporter cells, 36 hours incubation, dilution series 50 μM to 15 nM. In kind it is cell-based. The method, then: In a parallel approach, HCT116 cells were cotransfected with the FOP control vector and pcDNA3. The FOP vector is identical to the TOP construct, but it contains instead of functional TCF elements a randomized, non-functional sequence. For this transfection a stable transfected cell line was generated as well.
(§1) In preparation of the assay, the two cell lines were plated 24 hours before at 10000 cells per well of a 384 micro titre plate (MTP) in 30 μL growth medium. Selective inhibitory activity for small molecules on the mutated Wnt pathway was determined after parallel incubation of both (TOP and FOP) HCT116 reporter cell lines with a compound dilution series from 50 μM to 15 nM in steps of 3.16-fold dilutions in CAFTY buffer (130 mM NaCl, 5 mM KCl, 20 mM HEPES, 1 mM MgCl2, 5 mM NaHCO3, pH 7.4) containing 2 mM Ca^2+ and 0.01% BSA. The compounds were thereby serially prediluted in 100% DMSO and thereafter in addition 50 fold into the CAFTY compound dilution buffer (described above). From this dilution 10 μL were added to the cells in 30 μL growth medium and incubated for 36 hours at 37° C. and 5% CO2. Thereafter luciferase assay buffer (1:1 mixture of luciferase substrate buffer (20 mM Tricine, 2.67 mM MgSO4, 0.1 mM EDTA, 4 mM DTT, 270 μM Coenzyme A, 470 μM Luciferin, 530 μM ATP, ph adjusted to pH 7.8 with a sufficient volume of 5M NaOH) and Triton buffer (30 mL Triton X-100, 115 mL glycerol, 308 mg Dithiothreitol, 4.45 g Na2HPO4.2H2O, 3.03 g TRIS HCl, ad 1 l H20, pH 7.8) was added as equal volume to the compound solution on the cells to determine luciferase expression as a measure of Wnt signaling activity in a luminometer.
Background: In a reporter assay the amount or activity of a reporter protein is the signal.

The subject of assay [2] is constitutive active colorectal cancer cell (CRC) Wnt pathway, HCT116 TOPFlash. The assay can be described thus: Cellular reporter assay, HCT116 Super TopFlash (constitutive active Wnt pathway), luciferase expression. In kind it is cell-based. The settings on record: HCT116 Super TopFlash reporter cells, 36 hours incubation, dilution series 50 μM to 15 nM. The method, then: In order to discover and characterize small molecules which inhibit the constitutive active colorectal cancer cell (CRC) Wnt pathway, a cellular reporter assay was employed. The corresponding assay cell was generated by transfection of the colorectal cancer cell line HCT116 (ATCC, #CCL-247) with the Super TopFlash vector (Morin, Science 275, 1997, 1787-1790; Molenaar et al., Cell 86 (3), 1996, 391-399). The HCT116 cell line is cultivated at 37° C. and 5% CO2 in DMEM/F-12 (Life Technologies, #11320-074), supplemented with 2 mM glutamine, 20 mM HEPES, 1.4 mM pyruvate, 0.15% Na-bicarbonate and 10% foetal bovine serum (GIBCO, #10270), this cancer cell line is pathophysiological relevant since it carries a deletion of position S45 in the β-catenin gene, leading to constitutive active Wnt signaling. Stable transfectants were generated by cotransfection with pcDNA3 and selection of stable transfected cells with 1 mg/ml G418.
as §1

Data on 21 compounds can be found in patent US20170107212A1, “NOVEL COMPOUNDS” (Bayer Pharma Aktiengesellschaft, priority 2014, published 2017).

A word on the pIC50: it is −log10 of the IC50, conventionally taken in molar units. Read a low pIC50 as a large IC50.

pIC50: −log10 of the molar value. Where a name gives a salt, the structure may show the parent alone.

On to `CN1CCN(CC(=O)Nc2cc(C(=O)Nc3ccc(-c4cccnc4F)cn3)ccc2OC(F)(F)F)CC1` [Example 13, N-(2′-fluoro-3,3′-bipyridin-6-yl)-3-{[(4-methylpiperazin-1-yl)acetyl]amino}-4-(trifluoromethoxy)benzamide], for which the negative-log IC50 (pIC50) in assay [1] (Homo sapiens, HCT-116, 36 h) is no more than 4.30; in assay [2] (Homo sapiens, HCT-116, 36 h) it was 7.38.

`O=C(CN1CCOCC1)Nc1cc(C(=O)Nc2ccc(-c3cccnc3)cn2)ccc1OC(F)(F)F` [Example 14, N-(3,3′-bipyridin-6-yl)-3-[(morpholin-4-ylacetyl)amino]-4-(trifluoromethoxy)benzamide]: the negative-log IC50 (pIC50) was no more than 4.30 in assay [1] (Homo sapiens, HCT-116, 36 h) and 7.37 in assay [2] (Homo sapiens, HCT-116, 36 h).

With `Nc1ccc(-c2ccc(NC(=O)c3ccc(OC(F)(F)F)c(NC(=O)CN4CCOCC4)c3)nc2)cn1` [Example 15, N-(6′-amino-3,3′-bipyridin-6-yl)-3-[(morpholin-4-ylacetyl)amino]-4-(trifluoromethoxy)benzamide], the pIC50 in assay [1] (Homo sapiens, HCT-116, 36 h) was no more than 4.30; in assay [2] (Homo sapiens, HCT-116, 36 h), 7.09.

Turning to `O=C(CN1CCOCC1)Nc1cc(C(=O)Nc2ccc(-c3cccnc3F)cn2)ccc1OC(F)(F)F` [Example 16, N-(2′-fluoro-3,3′-bipyridin-6-yl)-3-[(morpholin-4-ylacetyl)amino]-4-(trifluoromethoxy)benzamide], the pIC50 in assay [1] (Homo sapiens, HCT-116, 36 h) was no more than 4.30; in assay [2] (Homo sapiens, HCT-116, 36 h), 6.99.

For the compound `Nc1ncc(-c2ccc(NC(=O)c3ccc(OC(F)(F)F)c(NC(=O)CN4CCOCC4)c3)nc2)cn1` [Example 17, N-[5-(2-aminopyrimidin-5-yl)pyridin-2-yl]-3-[(morpholin-4-ylacetyl)amino]-4-(trifluoromethoxy)benzamide], the pIC50 was no more than 4.30 in assay [1] (Homo sapiens, HCT-116, 36 h) and 6.92 in assay [2] (Homo sapiens, HCT-116, 36 h).

For the compound `CN1CCN(C2(C(=O)Nc3cc(C(=O)Nc4nnc(-c5ccccn5)s4)ccc3OC(F)(F)F)CC2)CC1` [Example 18, 3-({[1-(4-methylpiperazin-1-yl)cyclopropyl]carbonyl}amino)-N-[5-(pyridin-2-yl)-1,3,4-thiadiazol-2-yl]-4-(trifluoromethoxy)benzamide hydrochloride], the pIC50 is 4.99 in assay [1] (Homo sapiens, HCT-116, 36 h) and 6.97 in assay [2] (Homo sapiens, HCT-116, 36 h).

With `CN1CCN(C2(C(=O)Nc3cc(C(=O)Nc4nnc(-c5cccnc5)s4)ccc3OC(F)(F)F)CC2)CC1` [Example 19, 3-({[1-(4-methylpiperazin-1-yl)cyclopropyl]carbonyl}amino)-N-[5-(pyridin-3-yl)-1,3,4-thiadiazol-2-yl]-4-(trifluoromethoxy)benzamide hydrochloride], the negative logarithm of the IC50 (pIC50) in assay [1] (Homo sapiens, HCT-116, 36 h) was no more than 4.30; in assay [2] (Homo sapiens, HCT-116, 36 h) it was 6.98.

Take `CN1CCN(CC(=O)Nc2cc(C(=O)Nc3nnc(-c4cccnc4)s3)ccc2OC(F)(F)F)CC1` [Example 20, 3-{[(4-methylpiperazin-1-yl)acetyl]amino}-N-[5-(pyridin-3-yl)-1,3,4-thiadiazol-2-yl]-4-(trifluoromethoxy)benzamide hydrochloride]: the pIC50 in assay [1] (Homo sapiens, HCT-116, 36 h) is 4.40; in assay [2] (Homo sapiens, HCT-116, 36 h), 6.78.

As for `CN1CCN(CC(=O)Nc2cc(C(=O)Nc3nnc(-c4cccnc4)s3)ccc2OC(F)(F)F)CC1` [Example 21, 3-{[(4-methylpiperazin-1-yl)acetyl]amino}-N-[5-(pyridin-3-yl)-1,3,4-thiadiazol-2-yl]-4-(trifluoromethoxy)benzamide], the values for the pIC50 in assay [1] and in assay [2] were no more than 4.30 and 6.50, respectively.

Take `CC(C(=O)Nc1cc(C(=O)Nc2ccc(-c3ccncc3)nc2)ccc1OC(F)(F)F)N1CCOCC1` (stereo not drawn) [Example 22, N-(2,4′-bipyridin-5-yl)-3-{[2-(morpholin-4-yl)propanoyl]amino}-4-(trifluoromethoxy)benzamide]: the pIC50 in assay [1] (Homo sapiens, HCT-116, 36 h) is no more than 4.30; in assay [2] (Homo sapiens, HCT-116, 36 h), 6.55.

As to `CC(C(=O)Nc1cc(C(=O)Nc2ccc(-c3ccc(F)nc3)nc2)ccc1OC(F)(F)F)N1CCOCC1` (stereo not drawn) [Example 23, N-(6′-fluoro-2,3′-bipyridin-5-yl)-3-{[2-(morpholin-4-yl)propanoyl]amino}-4-(trifluoromethoxy)benzamide], the pIC50 was no more than 4.30 in assay [1] (Homo sapiens, HCT-116, 36 h) and 7.27 in assay [2] (Homo sapiens, HCT-116, 36 h).

Regarding `COc1ccc(NC(=O)c2ccc(-c3cccs3)nc2)cc1NC(=O)CN1CCOCC1` [Example 24, N-{4-methoxy-3-[(morpholin-4-ylacetyl)amino]phenyl}-6-(thiophen-2-yl)pyridine-3-carboxamide], the pIC50 in assay [1] (Homo sapiens, HCT-116, 36 h) is no more than 4.30; in assay [2] (Homo sapiens, HCT-116, 36 h), 5.40.

Take `COc1ccc(NC(=O)c2ccc(-c3ccncc3)s2)cc1NC(=O)CN1CCOCC1` [Example 25, N-{4-methoxy-3-[(morpholin-4-ylacetyl)amino]phenyl}-5-(pyridin-4-yl)thiophene-2-carboxamide]: the negative-log IC50 (pIC50) in assay [1] (Homo sapiens, HCT-116, 36 h) is no more than 4.30; in assay [2] (Homo sapiens, HCT-116, 36 h), 5.36.

On to `CN1CCN(C2(C(=O)Nc3cc(C(=O)Nc4nnc(-c5cccnc5)s4)ccc3Cl)CC2)CC1` [Example 26, 4-chloro-3-({[1-(4-methylpiperazin-1-yl)cyclopropyl]carbonyl}amino)-N-[5-(pyridin-3-yl)-1,3,4-thiadiazol-2-yl]benzamide], for which the pIC50 is no more than 4.30 in assay [1] (Homo sapiens, HCT-116, 36 h) and 6.30 in assay [2] (Homo sapiens, HCT-116, 36 h).

With `Cc1ncccc1-c1nnc(NC(=O)c2ccc(OC(F)(F)F)c(NC(=O)CN3CCN(C)CC3)c2)s1` [Example 27, 3-{[(4-methylpiperazin-1-yl)acetyl]amino}-N-[5-(2-methylpyridin-3-yl)-1,3,4-thiadiazol-2-yl]-4-(trifluoromethoxy)benzamide], the pIC50 was no more than 4.30 in assay [1] (Homo sapiens, HCT-116, 36 h) and 5.57 in assay [2] (Homo sapiens, HCT-116, 36 h).

On to `Cc1ncccc1-c1nnc(NC(=O)c2ccc(OC(F)(F)F)c(NC(=O)CN3CCOCC3)c2)s1` [Example 28, N-[5-(2-methylpyridin-3-yl)-1,3,4-thiadiazol-2-yl]-3-[(morpholin-4-ylacetyl)amino]-4-(trifluoromethoxy)benzamide], for which the pIC50 was no more than 4.30 in assay [1] (Homo sapiens, HCT-116, 36 h) and 5.94 in assay [2] (Homo sapiens, HCT-116, 36 h).

On to `CN1CCN(C2(C(=O)Nc3cc(C(=O)Nc4nnc(-c5cncnc5)s4)ccc3OC(F)(F)F)CC2)CC1` [Example 29, 3-({[1-(4-methylpiperazin-1-yl)cyclopropyl]carbonyl}amino)-N-[5-(pyrimidin-5-yl)-1,3,4-thiadiazol-2-yl]-4-(trifluoromethoxy)benzamide], for which the pIC50 in assay [1] (Homo sapiens, HCT-116, 36 h) was no more than 4.30; in assay [2] (Homo sapiens, HCT-116, 36 h), 6.69.

For the compound `O=C(Nc1nnc(-c2cncnc2)s1)c1ccc(OC(F)(F)F)c(NC(=O)C2(N3CCOCC3)CC2)c1` [Example 30, 3-({[1-(morpholin-4-yl)cyclopropyl]carbonyl}amino)-N-[5-(pyrimidin-5-yl)-1,3,4-thiadiazol-2-yl]-4-(trifluoromethoxy)benzamide], the pIC50 in assay [1] (Homo sapiens, HCT-116, 36 h) was no more than 4.30; in assay [2] (Homo sapiens, HCT-116, 36 h), 6.27.

In the case of `CN1CCN(CC(=O)Nc2cc(C(=O)Nc3nnc(-c4cnc(N)nc4)s3)ccc2OC(F)(F)F)CC1` [Example 31, N-[5-(2-aminopyrimidin-5-yl)-1,3,4-thiadiazol-2-yl]-3-{[(4-methylpiperazin-1-yl)acetyl]amino}-4-(trifluoromethoxy)benzamide], the pIC50 in assay [1] (Homo sapiens, HCT-116, 36 h) is no more than 4.30; in assay [2] (Homo sapiens, HCT-116, 36 h), 6.01.

With `CN1CCN(C2(C(=O)Nc3cc(C(=O)Nc4nnc(-c5cnc(N)nc5)s4)ccc3OC(F)(F)F)CC2)CC1` [Example 32, N-[5-(2-aminopyrimidin-5-yl)-1,3,4-thiadiazol-2-yl]-3-({[1-(4-methylpiperazin-1-yl)cyclopropyl]carbonyl}amino)-4-(trifluoromethoxy)benzamide], the pIC50 in assay [1] (Homo sapiens, HCT-116, 36 h) is no more than 4.30; in assay [2] (Homo sapiens, HCT-116, 36 h) it was 6.89.

Take `Nc1ncc(-c2nnc(NC(=O)c3ccc(OC(F)(F)F)c(NC(=O)C4(N5CCOCC5)CC4)c3)s2)cn1` [Example 33, N-[5-(2-aminopyrimidin-5-yl)-1,3,4-thiadiazol-2-yl]-3-({[1-(morpholin-4-yl)cyclopropyl]carbonyl}amino)-4-(trifluoromethoxy)benzamide]: the pIC50 in assay [1] (Homo sapiens, HCT-116, 36 h) was no more than 4.30; in assay [2] (Homo sapiens, HCT-116, 36 h), 6.71.
